{"source": "paper PMC4920105", "about": "“Identification and Development of 2,3-Dihydropyrrolo[1,2-a]quinazolin-5(1H)-one Inhibitors Targeting Bromodomains within the Switch/Sucrose Nonfermenting Complex” (Journal of Medicinal Chemistry, 2016)", "key": {"[1]": {"assay": "Solubility (qualitative)", "type": "physicochemical"}, "[2]": {"molecular_target": "T1, PB1(5) (Homo sapiens, UniProt Q86U86)", "T1 construct": "the fifth bromodomain of PB1 (PB1(5)); made in house", "T1 sequence (Q86U86 653-774)": "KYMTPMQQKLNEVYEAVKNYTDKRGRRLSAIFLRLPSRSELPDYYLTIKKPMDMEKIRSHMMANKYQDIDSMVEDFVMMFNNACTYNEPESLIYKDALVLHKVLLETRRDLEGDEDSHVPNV", "assay": "DSF Tm shift assay, PB1(5) bromodomain", "type": "binding", "details": "for PB1(5) Tm (Supplementary Table 2): average of three replicates and standard deviation"}, "[3]": {"molecular_target": "T2, BRD9A (Homo sapiens, UniProt Q9H8M2)", "T2 construct": "Bromodomain DSF Tm assays were performed; made in house", "T2 sequence (Q9H8M2 136-240 limits assumed)": "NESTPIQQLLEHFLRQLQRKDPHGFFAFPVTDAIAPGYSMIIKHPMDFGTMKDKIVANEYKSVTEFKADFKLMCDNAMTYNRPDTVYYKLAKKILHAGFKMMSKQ", "assay": "DSF Tm shift assay, BRD9A", "type": "binding", "details": "single measurement", "protocol": "(§1) Protein Expression and Purification.\n(§2) Proteins were cloned, expressed, and purified as previously described.1 […]\n(§3) Bromodomain DSF Tm assays were performed using a Mx3005p real-time PCR machine (Agilent) and low profile 96-well PCR plates (AB-0700, Life Technologies). Protein was buffered in 10 mM HEPES, pH 7.5, 500 mM NaCl and assayed at a concentration of 2 µM with 10 µM inhibitor concentration and 1:1000 SyproOrange (Invitrogen). Excitation and emission filters were set to 465 and 590 nm respectively. The temperature was raised by 3 °C per 1 min from 25–95 °C, and fluorescence readers were taken at each interval. Data analysis was carried out as described previously.2\n(§4) AlphaScreen Displacement Assay.\n(§5) AlphaScreen assays were based on a reported protocol, with minor variations.3 In place of a biotinylated peptide, a biotinylated ligand was used at 25 nM final concentration.\n(§6) Isothermal Calorimetry Experiments.\n(§7) Calorimetric experiments were performed on a VP-ITC micro-calorimeter (MicroCalTM, LLC Northampton, MA). Protein solutions were buffer exchanged by dialysis into buffer 20 mM Hepes pH 7.5, 150 mM NaCl, and 0.5 mM TCEP. All measurements were carried out at 293.15 K while stirring at 286 rpm. The micro syringe was loaded with protein solutions ranging from […]"}, "[4]": {"molecular_target": "T3, BRPF1B (Homo sapiens, UniProt P55201)", "T3 construct": "Bromodomain DSF Tm assays were performed; made in house", "T3 sequence (P55201 628-732 limits assumed)": "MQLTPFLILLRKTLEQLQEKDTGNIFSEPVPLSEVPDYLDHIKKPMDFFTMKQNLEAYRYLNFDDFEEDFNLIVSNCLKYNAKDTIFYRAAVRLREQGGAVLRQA", "assay": "DSF Tm shift assay, BRPF1B", "type": "binding", "details": "single measurement", "protocol": "as §1, §2, §3, §4, §5, §6, §7"}, "[5]": {"molecular_target": "T4, CECR2A (Homo sapiens, UniProt Q9BXF3)", "T4 construct": "Bromodomain DSF Tm assays were performed; made in house", "T4 sequence (Q9BXF3 434-538 limits assumed)": "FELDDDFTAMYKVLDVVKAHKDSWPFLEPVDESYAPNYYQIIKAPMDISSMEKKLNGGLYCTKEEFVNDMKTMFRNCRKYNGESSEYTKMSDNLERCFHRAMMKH", "assay": "DSF Tm shift assay, CECR2A", "type": "binding", "details": "single measurement", "protocol": "as §1, §2, §3, §4, §5, §6, §7"}, "[6]": {"assay": "Aqueous stability by 1H NMR in D2O time course", "type": "physicochemical", "text": "Compounds were synthesized by the routes shown in Scheme 1. Amidation of 2-aminobenzamide 2 with 4-chlorobutanoyl chloride[29] gave amide 3, which could be cyclized to the 2,3-dihydropyrrolo[1,2-a]quinazolin-5(1H)-one core 4 using potassium tert-butoxide. The isomer was confirmed on the basis of NOE correlations and subsequent crystallography. The weak nucleophilicity of the core was then exploited by reacting compound 4 with substituted N,N-dialkylformamides using Vilsmeier–Haack conditions, giving analogues incorporating nitrogen-based aliphatic side chains solely as the E regioisomer. This chemistry was unsuitable for piperazine-based formamides. For these side chains, analogues 12–15 were synthesized as single regioisomers by displacement of the dimethylamino group in 5 using cyclic secondary amines and DMAP catalysis. Due to the potential for hydrolysis of the enamine-like moiety, the aqueous stability of 5 was assessed by ^1H NMR in a D2O time course experiment and was stable for >24 h. […] Their binding to PB1(5) was assessed by the operationally simple DSF assay (Table 1). […] Six-membered aliphatic rings (10–14) were better tolerated than analogues containing six-membered aromatic side chains (see Supporting Information), likely due to their greater flexibility. However, expansion to a seven-membered ring reduced activity."}, "[7]": {"molecular_target": "T1, PB1(5)", "assay": "Isothermal calorimetry (ITC), PB1(5) bromodomain", "type": "binding", "details": "for K × 10^6 (M^–1): 293.15 K"}, "[8]": {"details": "10 μM inhibitor, average of three replicates"}}, "note": "Where “and” joins values, the source holds several entries; their conditions need not be identical. Identical values can stand only once.", "data": [{"smiles": "O=c1nc2n(c3ccccc13)CC/C2=C\\c1ccoc1", "note": "[Compound 1]", "values": [{"measurement": "aqueous solubility", "setting": "[1]", "result": "poor"}]}, {"smiles": "O=c1nc2n(c3ccccc13)CCC2", "note": "[Compound 4, 2,3-Dihydropyrrolo[1,2-a]quinazolin-5(1H)-one]", "values": [{"measurement": "PB1(5) ΔTm", "setting": "[2]; [8]", "result": "no interaction"}, {"measurement": "ΔTm at 10 µM", "setting": "[2]; [8]", "result": 0, "unit": "°C"}]}, {"smiles": "CN(C)/C=C1\\CCn2c1nc(=O)c1ccccc12", "note": "[Compound 5, (E)-3-((Dimethylamino)methylene)-2,3-dihydropyrrolo[1,2-a]quinazolin-5(1H)-one]", "values": [{"measurement": "BRD9A Tm", "setting": "[3]", "result": 0.2, "unit": "°C"}, {"measurement": "BRPF1B Tm", "setting": "[4]", "result": 0.1, "unit": "°C"}, {"measurement": "CECR2A Tm", "setting": "[5]", "result": 0.1, "unit": "°C"}, {"measurement": "aqueous stability", "setting": "[6]", "result": "> 24", "unit": "h"}]}, {"smiles": "CCCN(/C=C1\\CCn2c1nc(=O)c1ccccc12)CCC", "note": "[Compound 7, (E)-3-((Dipropylamino)methylene)-2,3-dihydropyrrolo[1,2-a]quinazolin-5(1H)-one]", "values": [{"measurement": "PB1(5) ΔTm", "setting": "[2]; [8]", "result": "moderate activity"}]}, {"smiles": "CC(C)N(/C=C1\\CCn2c1nc(=O)c1ccccc12)C(C)C", "note": "[Compound 8, (E)-3-((Diisopropylamino)methylene)-2,3-dihydropyrrolo[1,2-a]quinazolin-5(1H)-one]", "values": [{"measurement": "PB1(5) ΔTm", "setting": "[2]; [8]", "result": "loss of binding"}]}, {"smiles": "O=c1nc2n(c3ccccc13)CC/C2=C\\N1CCCC1", "note": "[Compound 9, (E)-3-(Pyrrolidin-1-ylmethylene)-2,3-dihydropyrrolo[1,2-a]quinazolin-5(1H)-one]", "values": [{"measurement": "PB1(5) Tm (Supplementary Table 2)", "setting": "[2]", "result": "4.3 ± 0.4", "unit": "°C"}, {"measurement": "TΔS", "setting": "[7]", "result": "4.7 kcal/mol and 4.717 kcal/mol"}, {"measurement": "ΔG", "setting": "[7]", "result": -7.577, "unit": "kcal/mol"}, {"measurement": "K × 10^6 (M^–1)", "setting": "[7]", "result": "0.44 × 10^6 M^–1"}, {"measurement": "BRD9A Tm", "setting": "[3]", "result": 1.0, "unit": "°C"}, {"measurement": "BRPF1B Tm", "setting": "[4]", "result": 0.0, "unit": "°C"}, {"measurement": "CECR2A Tm", "setting": "[5]", "result": 0.2, "unit": "°C"}]}, {"smiles": "O=c1nc2n(c3ccccc13)CC/C2=C\\N1CCCCC1", "note": "[Compound 10, (E)-3-(Piperidin-1-ylmethylene)-2,3-dihydropyrrolo[1,2-a]quinazolin-5(1H)-one]", "values": [{"measurement": "TΔS", "setting": "[7]", "result": "5.3 kcal/mol and 5.274 kcal/mol"}, {"measurement": "ΔG", "setting": "[7]", "result": -7.926, "unit": "kcal/mol"}, {"measurement": "K × 10^6 (M^–1)", "setting": "[7]", "result": "0.80 × 10^6 M^–1"}, {"measurement": "BRD9A Tm", "setting": "[3]", "result": 0.2, "unit": "°C"}, {"measurement": "BRPF1B Tm", "setting": "[4]", "result": 0.0, "unit": "°C"}, {"measurement": "CECR2A Tm", "setting": "[5]", "result": 0.1, "unit": "°C"}]}, {"smiles": "O=c1nc2n(c3ccccc13)CC/C2=C\\N1CCOCC1", "note": "[Compound 11]", "values": [{"measurement": "BRD9A Tm", "setting": "[3]", "result": 0.8, "unit": "°C"}, {"measurement": "BRPF1B Tm", "setting": "[4]", "result": 0.0, "unit": "°C"}, {"measurement": "CECR2A Tm", "setting": "[5]", "result": 0.1, "unit": "°C"}]}, {"smiles": "CN1CCN(/C=C2\\CCn3c2nc(=O)c2ccccc23)CC1", "note": "[Compound 12]", "values": [{"measurement": "PB1(5) Tm (Supplementary Table 2)", "setting": "[2]", "result": "5.8 ± 0.1", "unit": "°C"}, {"measurement": "BRD9A Tm", "setting": "[3]", "result": 0.5, "unit": "°C"}, {"measurement": "BRPF1B Tm", "setting": "[4]", "result": 0.2, "unit": "°C"}, {"measurement": "CECR2A Tm", "setting": "[5]", "result": 0.3, "unit": "°C"}]}, {"smiles": "CCN1CCN(/C=C2\\CCn3c2nc(=O)c2ccccc23)CC1", "note": "[Compound 13]", "values": [{"measurement": "PB1(5) Tm (Supplementary Table 2)", "setting": "[2]", "result": "5.0 ± 0.5", "unit": "°C"}, {"measurement": "BRD9A Tm", "setting": "[3]", "result": 0.8, "unit": "°C"}, {"measurement": "BRPF1B Tm", "setting": "[4]", "result": 0.0, "unit": "°C"}, {"measurement": "CECR2A Tm", "setting": "[5]", "result": 0.1, "unit": "°C"}]}, {"smiles": "CC(C)(C)OC(=O)N1CCN(/C=C2\\CCn3c2nc(=O)c2ccccc23)CC1", "note": "[Compound 14]", "values": [{"measurement": "PB1(5) Tm (Supplementary Table 2)", "setting": "[2]", "result": "4.7 ± 0.6", "unit": "°C"}, {"measurement": "BRD9A Tm", "setting": "[3]", "result": 0.7, "unit": "°C"}, {"measurement": "BRPF1B Tm", "setting": "[4]", "result": 0.2, "unit": "°C"}, {"measurement": "CECR2A Tm", "setting": "[5]", "result": 0.1, "unit": "°C"}]}, {"smiles": "CN1CCCN(/C=C2\\CCn3c2nc(=O)c2ccccc23)CC1", "note": "[Compound 15]", "values": [{"measurement": "PB1(5) Tm (Supplementary Table 2)", "setting": "[2]", "result": "3.5 ± 0.2", "unit": "°C"}, {"measurement": "BRD9A Tm", "setting": "[3]", "result": 0.0, "unit": "°C"}, {"measurement": "BRPF1B Tm", "setting": "[4]", "result": 0.2, "unit": "°C"}, {"measurement": "CECR2A Tm", "setting": "[5]", "result": 0.0, "unit": "°C"}]}]}
